Data set [1] can be described thus: Cytotoxicity in SH-SY5Y cell line (MTT). The data set is classed as cell-based. Particulars: human; SH-SY5Y, 10, 30 and 100 μM, 24 h, MTT; read-out: CC50. On the procedure:
SH-SY5Y human neuroblastoma cells were seeded in 96-well clear multi-well plates (6 × 10^4 cells/well). Cells were treated with increasing concentrations of compounds (10, 30 and 100 μM) for 24 h. Thereafter, viability was assessed by the MTT method. Cytotoxic concentration to observe 50% mortality (CC50) values for compounds were interpolated from dose–response curves represented as percentage of cell death vs. concentration of compound, fitted by non-linear regression and data interpolated to value 50.
(§1) The tetrazolium ring of MTT can be cleaved by active dehydrogenases to produce a formazan precipitate. At the end of the experiments, MTT (SigmaAldrich, M2003) stock solution was added to each well to achieve a final concentration of 0.5 mg/mL. Cells were incubated for 2 h. Thereafter, culture media was removed, and DMSO was added to each well to dissolve the formazan precipitate. Finally, absorbance was measured in a microplate reader (SPECTROstar nano, BMG Labtech) at 570 nm. Absorbance obtained in basal conditions was considered as 100% cell viability.
In order to evaluate the potential pharmacological profile of new compounds, we first tested the potential neurotoxicity in the neuroblastoma SHSY5Y cell line. Toxicity was evaluated at increasing concentrations (10, 30 and 100 μM), and toxicity was measured as MTT reduction capability. CC50 values were calculated by non-linear regression of curves % survival vs. concentration (Supplementary Materials Figure S2). CGP37157 and previously studied racemic derivatives rac-3a and (rac,R)-3b were included as reference compounds. As previously described, LA is a non-neurotoxic compound at the concentrations texted.

The nature of data set [2]: DPPH reduction assay, antioxidant capacity. Particulars: DPPH 100 µM, 30 min, mean ± SEM; for DPPH Scavenging at 100 µM, %: compound 100 µM; for DPPH Scavenging at 1mM, %: compound 1 mM. Here is the method: Antioxidant capacity was evaluated by using described procedure slightly modified. Compounds (0.1 and 1 mM, final concentration) were diluted in assay media (EtOH/H2O, 70:30) and mixed with 100 μL of DPPH (SigmaAldrich, D9132, Madrid, Spain) solution (100 μM final concentration) in a clear 96-multiwell plate. Final solution was kept in dark for 30 min, and absorbance of DPPH was measured in a SpectroStar Nano plate-reader (BMG Labtech, Ortenberg, Germany) in duplicate at […]. All experiments included a blank (assay media), control (DPPH 100 μM) and a positive control (ascorbic acid, 100 μM). Data were evaluated as % absorbance (Abs) reduction of control after subtracting blank absorbance. % DPPH reduction = [100 − ((Abssample − Absblank) × 100]/Abscontrol
Initially, we evaluated the free-radical-scavenging capacity of derivatives 7a–d in the DPPH assay, based on the capacity of the tested derivatives to react with the 2,2-diphenyl-1-picrylhydracil radical to generate a non-radical derivate. Hybrid derivatives 7a–d were evaluated at two different concentrations (0.1 and 1 mM), considering the activities of previously reported racemic derivatives. […] Ascorbic acid was used as a positive control, and CGP37157, rac-3a and (rac,R)-3b were included as references. […] Those results are similar to those obtained for racemic mixtures 3a and 3b and a mixture of (S,R)-7b and (R,R)-7d obtained from rac-3 and R-lipoic acid.
In general terms: The DPPH test is a chemical assay of radical scavenging.

For data set [3], the system named is BV2 microglial cells. Nature of the data set: Nitrite production reduction in LPS-stimulated BV2 microglial cells (Griess). The data set is classed as cell-based, mouse. As to conditions: BV2 + LPS, 0.3–30 µM. On the procedure:
BV2 microglial cells were seeded at 2 × 10^4 cells/well and treated with compounds at increasing concentrations during 24 h in complete culture media. Then, treatments were removed, and BV2 cells were co-incubated with compounds and LPS (100 ng/mL) (O127:B8, SigmaAldrich, L3129) for additional 18 h in culture media supplemented with 1% FBS. Each plate included non-treated cells as basal nitrite production. Thereafter, nitrite production was determined by using the modified Griess assay. In brief, samples (150 μL) were mixed with DAPSONE (75 μL) (SigmaAldrich, A74807) and NEDA (75 μL) (SigmaAldrich, 33461), and the mixture was incubated at room temperature for 5 min. Light absorption was measured at 550 nm in a microplate reader (SPECTROstar nano, BMG Labtech). Basal nitrite production was referred to as 100% of nitrite production, and all data were normalized to the basal condition. Concentration needed to reduce nitrite production to 50% was calculated from graphical representation of percentage of nitrite production vs. compound concentration, and data were fitted by non-linear regression and interpolated to 50%.
Chronic neuroinflammation is considered a key pathological event in the early stages of AD development. Among immune cells present at CNS, microglia is related to host defense and tissue repair. Nonetheless, chronic neuroinflammation induced by an adverse environment of protein aggregates and exacerbated OS induces a neurotoxic activity of microglia that, finally, leads to neuronal death. […] To this end, we selected the BV2 microglial cell model stimulated by lipopolysaccharide (LPS), a TLR4 agonist that activates the pro-inflammatory response. CGP37157, R- and S-LA; analogue compounds rac-3a and (rac,R)-3b; and precursor derivatives 6 were included with comparative and reference purposes. Microglial BV2 cells were treated with increasing concentrations of the corresponding compound (0.3, 3, 10 and 30 µM) for 24 h following a pre-incubation protocol. Thereafter, treatments were exchanged by a combination of the corresponding compound at desired concentration and LPS (100 ng/mL) during 18 h. At the end of this period, nitrite production was evaluated by the Griess method as an indirect measurement of iNOS enzyme expression and BV2 activation.

Data set [4] concerns SH-SY5Y neuroblastoma cells. Nature of the data set: Neuroprotection against rotenone/oligomycin A oxidative stress in SH-SY5Y cells (MTT). The data set is classed as cell-based, human. Particulars: compound 1 μM 24 h, then compound + R/O (30/10 μM) 24 h; for % Survival: basal = 100, R/O alone 53.4. On the procedure:
Human neuroblastoma SH-SY5Y cells were plated in 96-well clear multi-well plates (6 × 10^4 cells/well). The potential neuroprotective activity of compounds against OS was evaluated using the rotenone (30 μM) (SigmaAldrich, R8875) and oligomycin A (10 μM) (SigmaAldrich, 75351) (R/O) toxic mixture. Neuroprotection activity against Tau hyperphosphorylation was evaluated by using the okadaic acid (20 nM) model. Cells were pre-incubated with each compound (1 µM) for 24 h, and then treatments were removed and cells were incubated with compounds (1 µM) in the presence the corresponding toxic for additional 24 h. At the end of the experiments, viability was determined by the MTT method. Data were normalized from cell death induced by the toxic stimuli (considered as 100% cell death). Then, the protection percentages were calculated by subtracting from the death induced by toxic stimuli, the death in the presence of the compound.
as §1
Thus, we selected a pre-incubation protocol to evaluate their potential neuroprotective capacity based on the NRF2-induction activity and direct antioxidant effect. Compound pre-incubation would induce the expression of antioxidant enzymes regulated by the phase II antioxidant response, thus promoting cells’ survival. The co-incubation period would also evaluate their capacity to trap free radicals produced by intoxicated mitochondria. SH-SY5Y neuroblastoma cells were treated with compounds (1 µM) during 24 h, and then cells were co-incubated with the corresponding compound at the same concentration and the R/O combination (30/10 µM) for additional 24 h. Melatonin, a well-known antioxidant natural neurohormone, was included as a positive control (1 µM). Previously reported racemic derivatives (rac-3a and (rac,R)-3b) and their precursors ((±)-6, R-6 and S-6) were included for comparative purposes at the same concentration.

Data on four compounds can be found in publication PMC8772772, “Enantioselective Synthesis and Pharmacological Evaluation of Aza-CGP37157–Lipoic Acid Hybrids for the Treatment of Alzheimer’s Disease” (Antioxidants, 2022).

Values joined by “and” are separate entries in the source; they are usually repeats but may differ in a detail not shown here. Equal entries are not always repeated. Some results are limits rather than exact numbers.

The CC50 is the concentration at which the toxic effect on the cells reaches its halfway point. Regarding `O=C1CN(CCOC(=O)CCCC[C@@H]2CCSS2)[C@@H](c2ccccc2Cl)c2cc(Cl)ccc2N1` [(R,R)-7d, 2-((R)-7-Chloro-5-(2-chlorophenyl)-2-oxo-1,2,3,5-tetrahydro-4H-benzo[e][1,4]diazepin-4-yl)ethyl 5-((R)-1,2-dithiolan-3-yl)pentanoate], in data set [1], the CC50 at 24 h was more than 100 µM. Besides, in data set [2], the “DPPH Scavenging at 100 µM, %” value worked out at 8.66 ± 3.0% and the “DPPH Scavenging at 1mM, %” value was found to be 23.3 ± 3.5%. In data set [3], the “anti-inflammatory activity (nitrite production) at the evaluated concentrations” value (shortened to “anti-inflammatory activity”) was “no significant activity”. In data set [4], the “% Protection” value is 50.7% and the “% Survival” value came out at 77.6 ± 4.4%.

Turning to `O=C1CN(CCOC(=O)CCCC[C@@H]2CCSS2)[C@H](c2ccccc2Cl)c2cc(Cl)ccc2N1` [(R,S)-7c, 2-((S)-7-Chloro-5-(2-chlorophenyl)-2-oxo-1,2,3,5-tetrahydro-4H-benzo[e][1,4]diazepin-4-yl)ethyl 5-((R)-1,2-dithiolan-3-yl)pentanoate], the CC50 at 24 h in data set [1] was more than 100 µM. In data set [2], the “DPPH Scavenging at 100 µM, %” value is 13.6 ± 3.8%; the “DPPH Scavenging at 1mM, %” value was 35.9% and 35.9 ± 1.9%. The “anti-inflammatory activity” value in data set [3] is “no significant activity”. In data set [4], the “% Protection” value is 47.2% and the “% Survival” value was found to be 76.1 ± 2.9%.

Regarding `O=C1CN(CCOC(=O)CCCC[C@H]2CCSS2)[C@@H](c2ccccc2Cl)c2cc(Cl)ccc2N1` [(S,R)-7b, 2-((R)-7-Chloro-5-(2-chlorophenyl)-2-oxo-1,2,3,5-tetrahydro-4H-benzo[e][1,4]diazepin-4-yl)ethyl 5-((S)-1,2-dithiolan-3-yl)pentanoate], in data set [1], the CC50 at 24 h is more than 100 µM. In data set [2], the “DPPH Scavenging at 100 µM, %” value is 8.46 ± 3.8% and the “DPPH Scavenging at 1mM, %” value is listed as 32.0 ± 1.7%. Also, in data set [4], the “% Protection” value was 61.1% and the “% Survival” value is 81.0 ± 4.7%.

Consider `O=C1CN(CCOC(=O)CCCC[C@H]2CCSS2)[C@H](c2ccccc2Cl)c2cc(Cl)ccc2N1` [(S,S)-7a, 2-((S)-7-Chloro-5-(2-chlorophenyl)-2-oxo-1,2,3,5-tetrahydro-4H-benzo[e][1,4]diazepin-4-yl)ethyl 5-((S)-1,2-dithiolan-3-yl)pentanoate], for which the CC50 at 24 h in data set [1] was more than 100 µM. Moreover, in data set [2], the “DPPH Scavenging at 100 µM, %” value was determined as 10.9 ± 3.5% and the “DPPH Scavenging at 1mM, %” value was 30.3 ± 1.6%. Moreover, in data set [3], the “anti-inflammatory activity” value is listed as “no significant activity”. Further, in data set [4], the “% Protection” value is given as 43.4% and the “% Survival” value is reported as 74.8 ± 3.2%.
